# Source: PubChem BioAssay (NCI)
#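 Interpolation was linear, between the two tested concentrations surrounding the appropriate level; five concentrations were tested over 48 hours in 96-well plates. GI50 is the concentration that inhibits growth by half. TGI: concentration producing complete growth inhibition.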
# What was measured:
# Assay in all cases: growth of human tumour cells (NCI), 48 h
# [1] = test system: 786-0 renal
# [2] = test system: A498 renal
# [3] = test system: A549 NSCLC
# [4] = test system: ACHN renal
# [5] = test system: BT-549 breast
# [6] = test system: CAKI-1 renal
# [7] = test system: CCRF-CEM leukemia
# [8] = test system: COLO 205 colon
# [9] = test system: DU-145 prostate
# [10] = test system: EKVX NSCLC
# [11] = test system: HCC-2998 colon
# [12] = test system: HCT-116 colon
# [13] = test system: HCT-15 colon
# [14] = test system: HL-60(TB) leukemia
# [15] = test system: HOP-62 NSCLC
# [16] = test system: HOP-92 NSCLC
# [17] = test system: HS 578T breast
# [18] = test system: HT29 colon
# [19] = test system: IGROV1 ovarian
# [20] = test system: K-562 leukemia
# [21] = test system: KM12 colon
# [22] = test system: LOX IMVI melanoma
# [23] = test system: M14 melanoma
# [24] = test system: MALME-3M melanoma
# [25] = test system: MCF7 breast
# [26] = test system: MDA-MB-231 breast
# [27] = test system: MDA-MB-435
# [28] = test system: MOLT-4 leukemia
# [29] = test system: NCI-H226 lung
# [30] = test system: NCI-H23 lung
# [31] = test system: NCI-H460 lung
# [32] = test system: NCI-H522 lung
# [33] = test system: NCI/ADR-RES ovarian
# [34] = test system: OVCAR-3 ovarian
# [35] = test system: OVCAR-4 ovarian
# [36] = test system: OVCAR-5 ovarian
# [37] = test system: OVCAR-8 ovarian
# [38] = test system: PC-3 prostate
# [39] = test system: RXF 393 renal
# [40] = test system: SF-268 CNS
# [41] = test system: SF-295 CNS
# [42] = test system: SF-539 CNS
# [43] = test system: SK-MEL-2 melanoma
# [44] = test system: SK-MEL-28 melanoma
# [45] = test system: SK-MEL-5 melanoma
# [46] = test system: SK-OV-3 ovarian
# [47] = test system: SN12C renal
# [48] = test system: SNB-19 CNS
# [49] = test system: SNB-75 CNS
# [50] = test system: SR leukemia
# [51] = test system: SW-620 colon
# [52] = test system: T-47D breast
# [53] = test system: TK-10 renal
# [54] = test system: U251 CNS
# [55] = test system: UACC-257 melanoma
# [56] = test system: UACC-62 melanoma
# [57] = test system: UO-31 renal
compound,measurement,setting,value
Cc1cc(Cl)ccc1Nc1nc(C(F)(F)F)ccc1C(=O)N/N=C/c1ccccc1Cl,GI50,[1],0.672 µM
same,TGI,[1],2.67 µM
same,TGI,[2],3.14 µM
same,GI50,[3],1.77 µM
same,TGI,[3],11.6 µM
same,GI50,[4],1.53 µM
same,TGI,[4],6.86 µM
same,GI50,[5],1.12 µM
same,TGI,[5],5.75 µM
same,GI50,[6],2.82 µM
same,TGI,[6],7.72 µM
same,GI50,[7],0.341 µM
same,TGI,[7],4.78 µM
same,GI50,[8],0.727 µM
same,TGI,[8],2.1 µM
same,GI50,[9],1.62 µM
same,TGI,[9],> 27.6 µM
same,GI50,[10],0.894 µM
same,TGI,[10],7.23 µM
same,GI50,[11],1.34 µM
same,TGI,[11],> 100 µM
same,GI50,[12],0.439 µM
same,TGI,[12],3.18 µM
same,GI50,[13],0.438 µM
same,TGI,[13],16.5 µM
same,GI50,[14],1.12 µM
same,GI50,[15],0.836 µM
same,TGI,[15],2.72 µM
same,GI50,[16],2.14 µM
same,TGI,[16],> 24.6 µM
same,GI50,[17],1.26 µM
same,TGI,[17],5.67 µM
same,GI50,[18],2.01 µM
same,TGI,[18],> 41.9 µM
same,GI50,[19],1.57 µM
same,TGI,[19],> 42.2 µM
same,GI50,[20],0.588 µM
same,GI50,[21],0.902 µM
same,TGI,[21],8.14 µM
same,GI50,[22],0.53 µM
same,TGI,[22],2.94 µM
same,GI50,[23],0.874 µM
same,TGI,[23],7.83 µM
same,GI50,[24],1.54 µM
same,TGI,[24],6.18 µM
same,GI50,[25],0.896 µM
same,TGI,[25],10.6 µM
same,GI50,[26],1.13 µM
same,TGI,[26],5.53 µM
same,GI50,[27],2.29 µM
same,TGI,[27],20.9 µM
same,GI50,[28],1.29 µM
same,TGI,[28],> 100 µM
same,GI50,[29],1.3 µM
same,TGI,[29],5.07 µM
same,GI50,[30],0.775 µM
same,TGI,[30],4.89 µM
same,GI50,[31],0.85 µM
same,TGI,[31],4.84 µM
same,GI50,[32],1.48 µM
same,TGI,[32],6.77 µM
same,GI50,[33],1.19 µM
same,TGI,[33],7.16 µM
same,GI50,[34],0.239 µM
same,TGI,[34],2.15 µM
same,GI50,[35],0.422 µM
same,TGI,[35],> 100 µM
same,GI50,[36],1.65 µM
same,TGI,[36],11.1 µM
same,GI50,[37],2.16 µM
same,TGI,[37],> 92.7 µM
same,GI50,[38],0.866 µM
same,TGI,[38],> 26 µM
same,GI50,[39],1.48 µM
same,TGI,[39],4.41 µM
same,GI50,[40],0.811 µM
same,TGI,[40],6.05 µM
same,GI50,[41],0.691 µM
same,TGI,[41],4.12 µM
same,GI50,[42],1.22 µM
same,TGI,[42],3.6 µM
same,GI50,[43],3.22 µM
same,TGI,[43],18.8 µM
same,GI50,[44],1.38 µM
same,TGI,[44],6.88 µM
same,GI50,[45],1.39 µM
same,TGI,[45],3.51 µM
same,GI50,[46],0.874 µM
same,TGI,[46],4.95 µM
same,GI50,[47],1.45 µM
same,TGI,[47],> 54.3 µM
same,GI50,[48],1.72 µM
same,TGI,[48],14.5 µM
same,GI50,[49],2.29 µM
same,TGI,[49],> 29.3 µM
same,GI50,[50],0.188 µM
same,TGI,[50],0.768 µM
same,GI50,[51],0.667 µM
same,TGI,[51],6.02 µM
same,GI50,[52],0.824 µM
same,TGI,[52],4.63 µM
same,GI50,[53],1 µM
same,TGI,[53],16.1 µM
same,GI50,[54],0.526 µM
same,TGI,[54],4.86 µM
same,GI50,[55],2.24 µM
same,TGI,[55],10.2 µM
same,GI50,[56],1.43 µM
same,TGI,[56],5.36 µM
same,GI50,[57],1.29 µM
same,TGI,[57],4.15 µM
